Measurements reported in patent publication US20190375708A1 (VenatoRx Pharmaceuticals, Inc., priority 2018, published 2019).
pEC50: −log10 of the molar value.

Key:
[1] = tested on: HBV replication in HepAD38 cells; assay: Anti-HBV replication assay in HepAD38 cells (QPCR of extracellular HBV DNA); type: cell-based, HBV (genotype D, serotype ayw); conditions: Hepatitis B virus, 168 h, 7 days incubation, extracellular HBV DNA by QPCR, read-out: Anti-HBV EC50
Summary of the method: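 EC50 values reflect 50% reduction of extracellular HBV DNA, measured by QPCR after 7-day treatment of tetracycline-deprived HepAD38 cells with compound […].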

[2] = In vitro cytotoxicity assay (MTT cell viability) in HepG2 cells; type: cell-based, human; conditions: human
Summary of the method: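 CC50 values reflect loss of HepG2 viability after a 7-day exposure at 37 °C, 5% CO2. After 3-4 h with MTT, solubilized formazan was quantified at 492 nm relative to vehicle wells.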

Structure (SMILES)	pEC50 [1]	CC50 at 7 days [2] [nM]
Cc1cc(NC(=O)c2c(C)c(C(=O)C(=O)NOCC(F)(F)F)n(C)c2C)ccc1F [Example 157, N-(4-fluoro-3-methylphenyl)-1,2,4-trimethyl-5-(2-oxo-2-((2,2,2-trifluoroethoxy)amino)acetyl)-1H-pyrrole-3-carboxamide]	6.30 to 7.30	> 30000
Cc1cc(NC(=O)c2c(C)c(C(=O)C(=O)NC3CC(=O)NC(=O)C3)n(C)c2C)ccc1F [Example 610, 5-(2-((2,6-dioxopiperidin-4-yl)amino)-2-oxoacetyl)-N-(4-fluoro-3-methylphenyl)-1,2,4-trimethyl-1H-pyrrole-3-carboxamide]	> 7.30	> 30000
Cc1cc(NC(=O)c2c(C)c(C(=O)C(=O)N[C@H]3CCC[C@@H]3O)n(C)c2C)cnc1F [Example 131, N-(6-fluoro-5-methylpyridin-3-yl)-5-(2-(((1S,2S)-2-hydroxycyclopentyl)amino)-2-oxoacetyl)-1,2,4-trimethyl-1H-pyrrole-3-carboxamide]	6.30 to 7.30	> 30000
Cc1cc(NC(=O)c2c(C)c(C(=O)C(=O)N[C@H]3CNC(=O)C34CC4)n(C)c2C)ccc1F [Example 710, (R)-N-(4-fluoro-3-methylphenyl)-1,2,4-trimethyl-5-(2-oxo-2-((4-oxo-5-azaspiro[2.4]heptan-7-yl)amino)acetyl)-1H-pyrrole-3-carboxamide]	> 7.30	> 30000
Cc1cc(NC(=O)c2c(C)c(C(=O)C(=O)N[C@H](C(N)=O)[C@@H](C)O)n(C)c2C)ccc1F [Example 42, 5-(2-(((2S,3R)-1-amino-3-hydroxy-1-oxobutan-2-yl)amino)-2-oxoacetyl)-N-(4-fluoro-3-methylphenyl)-1,2,4-trimethyl-1H-pyrrole-3-carboxamide]	> 7.30	> 30000
Cc1noc(C2(NC(=O)C(=O)c3c(C)c(C(=O)Nc4ccc(F)c(C)c4)c(C)n3C)CC2)n1 [Example 155, N-(4-fluoro-3-methylphenyl)-1,2,4-trimethyl-5-(2-((1-(3-methyl-1,2,4-oxxadiazol-5-yl)cyclopropyl)amino)-2-oxoacetyl)-1H-pyrrole-3-carboxamide]	> 7.30	> 30000
Cc1cc(NC(=O)c2cc(C(=O)C(=O)N[C@H](CO)[C@@H](C)O)n3c2CCCC3)ccc1F [Example 433, 3-(2-(((2R,3R)-1,3-dihydroxybutan-2-yl)amino)-2-oxoacetyl)-N-(4-fluoro-3-methylphenyl)-5,6,7,8-tetrahydroindolizine-1-carboxamide]	6.00 to 6.30	> 30000
Cc1cc(NC(=O)c2c(C)c(C(=O)C(=O)NCCCN3CCOCC3)n(C)c2C)ccc1F [Example 301, N-(4-fluoro-3-methylphenyl)-1,2,4-trimethyl-5-(2-((3-morpholinopropyl)amino)-2-oxoacetyl)-1H-pyrrole-3-carboxamide]	> 7.30	> 30000
Cc1cc(NC(=O)c2c(C)c(C(=O)C(=O)Nc3nc(CO)cs3)n(C)c2C)ccc1F [Example 308, N-(4-fluoro-3-methylphenyl)-5-(2-((4-(hydroxymethyl)thiazol-2-yl)amino)-2-oxoacetyl)-1,2,4-trimethyl-1H-pyrrole-3-carboxamide]	6.00 to 6.30	> 30000
Cc1noc([C@H](C)NC(=O)C(=O)c2c(Cl)c(C(=O)Nc3ccnc(F)c3)c3n2CCCC3)n1 [Example 509, (S)-2-chloro-N-(2-fluororpyridin-4-yl)-3-(2-((1-(3-methyl-1,2,4-oxadiazol-55-yl)ethyl)amino)-2-oxoacetyl)-5,6,7,8-tetrahydroindoliznie-1-carboxamide]	6.00 to 6.30	> 30000
COCC(C)(C)NC(=O)C(=O)c1c(C)c(C(=O)Nc2cnc(F)c(C)c2)c(C)n1C [Example 167, N-(6-fluoro-5-methylpyridin-3-yl)-5-(2-((1-methyoxy-2-methylpropan-2-yl)amino)-2-oxoacetyl)-1,2,4-trimethyl-1H-pyrrole-3-carboxamide]	> 7.30	> 30000
O=C(NC1(CO)CCC1)C(=O)c1c(Cl)c(C(=O)Nc2ccc(F)c(F)c2)c2n1CCC2 [Example 558, 6-chloro-N-(3,4-difluorophenyl)-5-(2-((1-(hydroxymethyl)cyclobutyl)amino)-2-oxoacetyl)-2,3-dihydro-1H-pyrrolizine-7-carboxamide]	> 7.30	> 30000
O=C(N[C@H]1CCC[C@H]1O)C(=O)c1c(Cl)c(C(=O)Nc2ccc(F)c(F)c2)c2n1CCC2 [Example 571, 6-chloro-N-(3,4-difluorophenyl)-5-(2-(((1S,2R)-2-hydroxycyclopentyl)amino)-2-oxoacetyl)-2,3-dihydro-1H-pyrrolizine-7-carboxamide]	6.30 to 7.30	> 30000
Cc1cc(NC(=O)c2c(C)c(C(=O)C(=O)NCc3cnc(N)s3)n(C)c2C)cnc1F [Example 171, 5-(2-(((2-aminothiazol-5-yl)methyl)maino)-2-oxoacetyl)-N-(6-fluoro-5-methylpyridin-3-yl)-1,2,4-trimethyl-1H-pyrrole-3-carboxamide]	> 7.30	> 30000
COc1c(C(=O)Nc2ccc(F)c(F)c2)c(C)n(C)c1C(=O)C(=O)NC(C)(C)CO [Example 381, N-(3,4-difluorophenyl)-5-(2-((1-hydroxy-2-methylpropan-2-yl)amino)-2-oxoacetyl)-4-methoxy-1,2-dimethyl-1H-pyrrole-3-carboxamide]	6.30 to 7.30	> 30000
Cc1cc(NC(=O)c2c(C)c(C(=O)C(=O)NC3(CO)CC(F)(F)C3)n3c2CCCC3)cnc1F [Example 474, 3-(2-((3,3-difluoro-1-(hydroxymethyl)cyclobutyl)amino)-2-oxoacetyl)-N-(6-fluoro-5-methylpyridin-3-yl)-2-methyl-5,6,7,8-tetrahydroindolizine-1-ccarboxamide]	6.00 to 6.30	> 30000
CC(C)(CO)NC(=O)C(=O)c1c(Cl)c(C(=O)Nc2ccc(F)c(F)c2)c2n1CCCC2 [Example 492, 2-chloro-N-(3,4-difluorophenyl)-3-(2-((1-hydroxy-2-methylpropan-2-yl)amino)-2-oxoacetyl)-5,6,7,8-tetrahydroindolizine-1-carboxamide]	> 7.30	5000 to 30000
Cc1c(C(=O)Nc2cc(F)c(F)c(F)c2)c(C)n(C)c1C(=O)C(=O)Nc1ccc(F)nc1 [Example 321, 5-(2-((6-fluoropyridin-3-yl)amino)-2-oxoacetyl)-1,2,4-trimethyl-N-(3,4,5-trifluorophenyl)-1H-pyrrole-3-carboxamide]	> 7.30	5000 to 30000
Cc1c(C(=O)NC2(C)CCCC2)c2n(c1C(=O)C(=O)NC1(CO)CCC1)CCCC2 [Example 745, 3-(2-((1-(hydroxymethyl)cyclobutyl)amino)-2-oxoacetyl)-2-methyl-N-(1-methylcyclopentyl)-5,6,7,8-tetrahdyroindolizine-1-carboxamide]	6.30 to 7.30	> 30000
CC(C)(C)NC(=O)C(=O)c1cc(C(=O)Nc2ccc(F)c(F)c2)c2n1CCCC2 [Example 398, 3-(2-(tert-butylamino)-2-oxoacetyl)-N-(3,4-difluorophenyl)-5,6,7,8-tetrahydroindolizine-1-carboxamide]	6.30 to 7.30	> 30000
Cc1nc2c(s1)C(NC(=O)C(=O)c1c(C)c(C(=O)Nc3ccc(F)c(C)c3)c(C)n1C)CCC2 (stereo not drawn) [Example 355, N-(4-fluoro-3-methylphenyl)-1,2,4-trimethyl-5-(2-((2-methyl-4,5,6,7-tetrahydrobenzo[d]thiazol-7-yl)amino)-2-oxoacetyl)-1H-pyrrole-3-carboxamide]	> 7.30	> 30000
Cc1cc(NC(=O)c2c(C)c(C(=O)C(=O)NC3(C)CCN(c4ccncn4)CC3)n(C)c2C)ccc1F [Example 717]	> 7.30	5000 to 30000
CC(C)(CO)CNC(=O)C(=O)c1c(Cl)c(C(=O)Nc2ccc(F)c(F)c2)c2n1CCCC2 [Example 528, 2-chloro-N-(3,4-difluorophenyl)-3-(2-((3-hydroxy-2,2-dimethylpropyl)amino)-2-oxoacetyl)-5,6,7,8-tetrahydroindolizine-1-carboxamide]	6.00 to 6.30	500 to 4990
Nc1ncc(CNC(=O)C(=O)c2c(Cl)c(C(=O)Nc3ccc(F)c(Cl)c3)c3n2CCC3)s1 [Example 562, 5-(2-(((2-aminothiazol-5-yl)methyl)amino)-2-oxoacetyl)-6-chloro-N-(3-chloro-4-fluorophenyl)-2,3-dihydro-1H-pyrrolizine-7-carboxamide]	> 7.30	5000 to 30000
CCn1c(C)c(C(=O)Nc2ccc(F)c(C)c2)c(C)c1C(=O)C(=O)N[C@H]1CC[C@@H](O)CC1 [Example 284, 1-ethyl-N-(4-fluoro-3-methylphenyl)-5-(2-(((1s,4s)-4-hydroxycyclohexyl)amino)-2-oxoacetyl)-2,4-dimethyl-1H-pyrrole-3-carboxamide]	> 7.30	> 30000
Cc1cc(NC(=O)c2cc(C(=O)C(=O)NC3(CO)CCC3)n3c2CCCC3)ccc1F [Example 410, N-(4-fluoro-3-methylphenyl)-3-(2-((1-(hydroxymethyl)cyclobutyl)amino)-2-oxoacetyl)-5,6,7,8-tetrahydroindolizine-1-carboxamide]	6.30 to 7.30	> 30000
CC(C)(C)NC(=O)C(=O)c1cc(C(=O)Nc2ccc(F)c(Cl)c2)c2n1CCC2 [Example 535, 5-(2-(tert-butylamino)-2-oxoacetyl)-N-(3-chloro-4-fluorophenyl)-2,3-dihydro-1H-pyrrolizine-7-carboxamide]	> 7.30	500 to 4990
